# Columns and labels:
# [1] = molecular target: T1, AII receptors (cell surface membrane fraction, guinea pig adrenal gland) (Cavia porcellus, UniProt Q9WV26); assay: Test A: displacement of radiolabelled AII binding from guinea pig adrenal membranes; conditions: in vitro, read-out: IC50 (concentration for 50% displacement of radiolabelled AII binding)
# T1 construct: the source of cell surface membranes is the guinea pig adrenal gland; from tissue; host or cells: guinea pig adrenal gland, cell surface membrane fraction
# T1 sequence (Q9WV26 1-359): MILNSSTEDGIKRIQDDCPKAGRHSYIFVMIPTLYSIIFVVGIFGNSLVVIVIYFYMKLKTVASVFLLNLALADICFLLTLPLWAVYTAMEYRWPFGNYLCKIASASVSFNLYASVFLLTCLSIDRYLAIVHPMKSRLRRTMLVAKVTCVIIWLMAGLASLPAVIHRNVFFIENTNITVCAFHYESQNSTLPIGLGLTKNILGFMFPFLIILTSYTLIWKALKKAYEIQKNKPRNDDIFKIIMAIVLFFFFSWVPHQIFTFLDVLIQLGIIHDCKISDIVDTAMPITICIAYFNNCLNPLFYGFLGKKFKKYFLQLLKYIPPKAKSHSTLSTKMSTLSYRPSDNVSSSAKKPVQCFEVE
# Experimental: This in vitro procedure involves the incubation of the test compound initially at a concentration of 100 micromolar (or less) in a buffered mixture containing fixed concentrations of radiolabelled AII and a cell surface membrane fraction prepared from a suitable angiotensin target tissue. In this test, the source of cell surface membranes is the guinea pig adrenal gland which is well known to respond to AII. Interaction of the radiolabelled AII with its receptors (assessed as radiolabel bound to the particulate membrane fraction following removal of unbound radiolabel by a rapid filtration procedure such as is standard in such studies) is antagonized by compounds which also bind to the membrane receptor sites and the degree of antagonism (observed in the test as displacement of membrane-bound radioactivity) is determined readily by comparing the receptor-bound radioactivity in the presence of the test compound at the specified test concentration with a control value determined in the absence of the test compound. Using this procedure compounds showing at least 50% displacement of radiolabelled AII binding at a concentration of 10^-4 M are retested at lower concentrations to determine their potency. […]
# [2] = test system: angiotensin II-induced pressor responses; assay: Test C: in vivo antagonism of angiotensin II-induced pressor responses in rats; conditions: iv, rat, i.v. administration
# Experimental: This in vivo test involves using terminally-anaesthetised or conscious rats in which an arterial catheter has been implanted under anaesthesia for the measurement of changes in blood pressure. The AII antagonistic effects of the test compound following oral or parenteral administration, are assessed against angiotensin II-induced pressor responses. To ensure that the effect is specific, the effect of the test compound on vasopressin-induced pressor responses may also be determined in the same preparation.
smiles,measurement,setting,value
"Cc1cc(OC(C)c2ccc(-c3ccccc3-c3nnn[nH]3)cc2)c2ccccc2n1.Cl (centres unmarked) [Example 1, 2-methyl-4-[1-(2'-(1H-tetrazol-5-yl)biphenyl-4-yl)ethoxy]quinoline hydrochloride]",IC50,[1],40 nM
same,ED50,[2],0.18 mg/kg
